Laboratory results published in ChEMBL document CHEMBL1125278, “Novel cerebroprotective agents with central nervous system stimulating activity. 2. Synthesis and pharmacology of the 1-(acylamino)-7-hydroxyindan derivatives” (1991).
Several values for one entry are separate records, joined by “and”; a condition that tells them apart may be missing. Equal entries are not always repeated.

Tests used:
[1] = system: Mus musculus; assay: Time of recovery of righting reflux (RRT) in seconds was measured after oral administration of 30 mg/kg in mice for the promotional effect on recovery from coma.; type: functional
[2] = system: Mus musculus; assay: Antihypoxic effect tested by the ratio of survival time (SVT) of test mice to that of control group, dosed intraperitoneally at 30 mg/kg; type: functional; conditions: route intraperitoneal
[3] = system: Mus musculus; assay: Antihypoxic effect tested by the ratio of survival time (SVT) of test mice to that of control group, dosed orally 30 mg/kg; type: functional; conditions: route oral
[4] = system: Mus musculus; assay: Spontaneous movement (SMT) in seconds, was measured after oral administration of 30 mg/kg in mice to test for promoting effects on recovery from coma.; type: functional
[5] = system: Mus musculus; assay: Time of recovery of spontaneous movement (SMT) in seconds was measured after administration of 100 mg/kg orally in mice for the promotional effect on recovery from coma.; type: functional
[6] = system: Mus musculus; assay: Time of recovery of spontaneous movement (SMT) in seconds was measured after administration of 10 mg/kg orally in mice for the promotional effect on recovery from coma.; type: functional; conditions: route oral
[7] = system: Mus musculus; assay: Compound was tested for the anesthetic effect and the sleeping time (ST) was recorded at a dose of 30 mg/kg administered intraperitoneally.; type: functional; conditions: route intraperitoneal
[8] = system: Mus musculus; assay: Time of recovery of righting reflux (RRT) in seconds was measured after oral administration of 30 mg/kg orally in mice for the promotional effect on recovery from coma.; type: functional
[9] = system: Mus musculus; assay: Time of recovery of righting reflux (RRT) in seconds was measured after oral administration of 100 mg/kg orally in mice for the promotional effect on recovery from coma.; type: functional
[10] = system: Mus musculus; assay: Time of recovery of righting reflux (RRT) in seconds was measured after oral administration of 10 mg/kg orally in mice for the promotional effect on recovery from coma.; type: functional
[11] = system: Mus musculus; assay: Compound was tested for the anesthetic effect and the sleeping time (ST) was recorded at a dose of 10 mg/kg administered intraperitoneally.; type: functional; conditions: route intraperitoneal
[12] = system: Mus musculus; assay: Antihypoxic effect by the survival time (SVT) in mice at a dose of 3 mg/kg administered intraperitoneally.; type: functional; conditions: route intraperitoneal
[13] = system: Mus musculus; assay: Compound was tested for the anesthetic effect and the sleeping time (ST) was recorded at a dose of 3 mg/kg administered intraperitoneally.; type: functional; conditions: route intraperitoneal
[14] = system: Mus musculus; assay: Antihypoxic effect by the ratio of survival time (SVT) of test mice to that of control group at a dose of 10 mg/kg administered intraperitoneally.; type: functional; conditions: route intraperitoneal
[15] = system: Mus musculus; assay: Time of recovery of righting reflux (RRT) in seconds was measured after administration of 1 mg/kg orally in mice for the promotional effect on recovery from coma.; type: functional; conditions: route oral
[16] = system: Mus musculus; assay: Compound was tested for the anesthetic effect and the sleeping time (ST) was recorded at a dose of 3 mg/kg administered orally.; type: functional
[17] = system: Mus musculus; assay: Time of recovery of spontaneous movement (SMT) in seconds was measured after administration of 1 mg/kg orally in mice for the promotional effect on recovery from coma.; type: functional; conditions: route oral
[18] = system: Mus musculus; assay: Compound was tested for the anesthetic effect and the sleeping time (ST) was recorded at a dose of 10 mg/kg administered orally.; type: functional
[19] = system: Mus musculus; assay: Compound was tested for the anesthetic effect and the sleeping time (ST) was recorded at a dose of 1 mg/kg administered orally.; type: functional
[20] = system: Mus musculus; assay: Time of recovery of spontaneous movement (SMT) in seconds was measured after administration of 3 mg/kg orally in mice for the promotional effect on recovery from coma.; type: functional; conditions: route oral
[21] = system: Mus musculus; assay: Time of recovery of righting reflux (RRT) in seconds was measured after administration of 0.3 mg/kg orally in mice for the promotional effect on recovery from coma.; type: functional; conditions: route oral
[22] = system: Mus musculus; assay: Time of recovery of spontaneous movement (SMT) in seconds was measured after administration of 0.3 mg/kg orally in mice for the promotional effect on recovery from coma.; type: functional; conditions: route oral
[23] = system: Mus musculus; assay: Time of recovery of righting reflux (RRT) in seconds was measured after administration of 3 mg/kg orally in mice for the promotional effect on recovery from coma.; type: functional; conditions: route oral
[24] = system: Mus musculus; assay: Antihypoxic effect by the ratio of survival time (SVT) of test mice to that of control group at a dose of 30 mg/kg administered subcutaneously.; type: functional; conditions: route subcutaneous
[25] = system: Mus musculus; assay: Compound was tested for the anesthetic effect and the sleeping time (ST) was recorded at a dose of 3 mg/kg administered subcutaneously.; type: functional; conditions: route subcutaneous
[26] = system: Mus musculus; assay: Time of recovery of righting reflux (RRT) in seconds was measured after oral administration of 3 mg/kg in mice for the promotional effect on recovery from coma.; type: functional
[27] = system: Mus musculus; assay: Time of recovery of righting reflux (RRT) in seconds was measured after oral administration of 1 mg/kg in mice for the promotional effect on recovery from coma.; type: functional
[28] = system: Mus musculus; assay: Time of recovery of righting reflux (RRT) in seconds was measured after oral administration of 10 mg/kg in mice for the promotional effect on recovery from coma.; type: functional
[29] = system: Mus musculus; assay: Antihypoxic effect by the ratio of survival time (SVT) of test mice to that of control group at a dose of 100 mg/kg administered orally.; type: functional, organism-based; set-up: dose 100 mg/kg
[30] = system: Mus musculus; assay: Time of recovery of righting reflux (RRT) in seconds was measured after administration of 100 mg/kg orally in mice for the promotional effect on recovery from coma.; type: functional
[31] = system: Mus musculus; assay: Antihypoxic effect by the ratio of survival time (SVT) of test mice to that of control group at a dose of 100 mg/kg administered intraperitoneally.; type: functional

Compound	RRT [1]	SVT [2]	SVT [3]	SMT [4]	SVT [12]	SVT [14]	further results
CCC(C)c1cc(C)c2c(c1O)C(NC(=O)CN1CCN(c3ccccc3)CC1)CC2 (configuration not stated)	80.3 s	89.3%	85.9%	78.2 s			
Cc1cc(C)c2c(c1O)C(NC(=O)CN1CCN(c3cccc(Cl)c3)CC1)C(C)(C)C2 (configuration not stated)	88.4 s	456.6%	147.9%	128.1 s			
Cc1cc(C)c2c(c1O)C(NC(=O)CN1CCN(C)CC1)C(C)(C)C2 (configuration not stated)	54.9 s		86.4%		93%	92.5%	SMT ([5]; route oral): 36.2 s; SMT [6]: 60.9 s; ST [7]: 84.3 s; RRT [8]: 45.7 s; RRT [9]: 25.8 s; SVT ([2]; 30 mg/kg): 145.6% and 145.2%; RRT [10]: 61.2 s; ST [11]: 78.8 s; ST [13]: 92.7 s; SMT ([4]; 30 mg/kg): 43.1 s and 49.8 s
CCC(C)c1cc(C)c2c(c1O)C(NC(=O)CN1CCN(c3cccc(OC)c3)CC1)CC2 (configuration not stated)	99.1 s	218.5%	162.3%	103.5 s			
COc1cccc(N2CCN(CC(=O)NC3c4c(O)c(C)cc(C)c4CC3(C)C)CC2)c1 (configuration not stated)	48.3 s		135.4%	46 s	153.5%	176.4%	RRT [15]: 58 s; ST [16]: 84.8 s; SMT [17]: 56.2 s; ST [18]: 71.4 s; ST [19]: 92.7 s; SMT [20]: 45.3 s; RRT [21]: 72.7 s; SVT ([2]; 30 mg/kg): 169.1% and 206.7%; SMT [22]: 66.5 s; RRT [23]: 43.6 s
Cc1cc(C)c2c(c1O)C(N)C(C)(C)C2 (configuration not stated)	37.2 s	298.1%	142.1%	42 s	156.2%	217%	SMT [17]: 92.3 s; SMT [20]: 105.8 s; SVT [24]: 298.2%; ST [25]: 112 s and 82.1 s and 76.1 s; SMT [6]: 62.5 s; RRT [26]: 66.2 s; RRT [27]: 62.8 s; RRT [28]: 54.8 s
CCC(C)c1cc(C)c2c(c1O)C(NC(=O)CN1CCN(c3cccc(Cl)c3)CC1)CC2 (configuration not stated)	90.6 s	224.8%	144.5%	81.9 s			
VITAMIN E							SMT [5]: 83.5 s; SVT [29]: 178%; RRT [30]: 92.2 s; SVT [31]: 96.7%
CCC(C)c1cc(C)c2c(c1O)C(NC(=O)CN1CCN(c3cc(Cl)cc(Cl)c3)CC1)CC2 (configuration not stated)	114 s	139.4%	113.2%	100.6 s			
